Experimental findings from ChEMBL document CHEMBL1201862, “PubChem BioAssay data set” (2004) are described below.

SMILES strings stand for the structures.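 How tested: cells in 96-well plates exposed to compound for 48 hours at five concentrations. Abbreviation: GI50, concentration required for 50% inhibition of growth.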 Activity calls are given as the source filed them. Cut-off read from the data, not from the text of the source: active = GI50 up to about 1.1 µM and inactive = higher.

Test systems include SF-268; NCI-H23; MDA-MB-231; UO-31; COLO 205; HCC 2998; M14; SF-295; NCI-H460; SNB-75; OVCAR-3; EKVX; ACHN; Hs-578T; HL-60; HOP-92; K562; SR; OVCAR-5; Malme-3M.
Common to all, as to assay: growth of human tumour cells (NCI), 48 h

As for `COC(CC1(/C=C/O[Si](C(C)C)(C(C)C)C(C)C)C(=O)N(C)c2ccccc21)OC` (stereo not given), the GI50 in the assay on SF-268 was 36.6 µM (inactive); with NCI-H23, 42.1 µM (inactive); with MDA-MB-231 it was > 100 µM (inactive); in the assay with UO-31, 68.2 µM (inactive); in the assay with COLO 205 it was 58.9 µM (inactive); in the assay on HCC 2998, 64 µM (inactive). The GI50 is 94.8 µM (inactive) in the assay on M14; 28.6 µM (inactive) in the assay with SF-295; 45.9 µM (inactive) in the assay on NCI-H460; > 100 µM (inactive) in the assay with SNB-75; > 100 µM (inactive) in the assay with OVCAR-3; 46 µM (inactive) in the assay on EKVX. Further, the GI50 was 62.5 µM (inactive) in the assay on ACHN; 15.9 µM (inactive) in the assay on Hs-578T; 51.8 µM (inactive) with HL-60; > 100 µM (inactive) with HOP-92; 51.5 µM (inactive) in the assay with K562; 31.6 µM (inactive) in the assay with SR. Further, the GI50 in the assay with OVCAR-5 was > 100 µM (inactive).

On to `COc1cc(C(C)(C)C)c(OC(=O)/C=C/C(=O)O/C=C/[N+](=O)[O-])c(C(C)(C)C)c1`, for which the GI50 in the assay on SF-268 is 30.2 µM (inactive); in the assay on NCI-H23, 19.4 µM (inactive); with MDA-MB-231 it was 33.9 µM (inactive); with UO-31, 28.1 µM (inactive); with COLO 205, 42.9 µM (inactive); with HCC 2998 it was > 100 µM (inactive). The GI50 is 21.1 µM (inactive) with M14; > 100 µM (inactive) in the assay on SF-295; 66.4 µM (inactive) with NCI-H460; > 100 µM (inactive) in the assay on SNB-75; 32.7 µM (inactive) in the assay on OVCAR-3; 69 µM (inactive) with EKVX. Also, the GI50 in the assay with ACHN was 30.5 µM (inactive); in the assay on Hs-578T it was 28.6 µM (inactive); in the assay on HL-60 it was 0.324 µM (active); in the assay on HOP-92, > 100 µM (inactive); with K562, > 100 µM (inactive); in the assay on SR, 63.8 µM (inactive). In addition, the GI50 with OVCAR-5 is > 100 µM (inactive).

In the case of `CCOC(=O)/C=C(/OCC)[C@@H]1C(C(=O)c2ccc(Cl)cc2)[C@@H]1/C(=C\C(=O)OCC)OCC` (stereo not given in full), the GI50 in the assay with SF-268 is 45 µM (inactive); in the assay on NCI-H23 it was 11.7 µM (inactive); in the assay with MDA-MB-231, 10.1 µM (inactive); in the assay with UO-31 it was 4.53 µM (inactive); in the assay with COLO 205 it was 6.68 µM (inactive); in the assay on M14, 14.5 µM (inactive). The GI50 in the assay with SF-295 was 7.98 µM (inactive); in the assay with NCI-H460, 18.6 µM (inactive); with SNB-75, 7.5 µM (inactive); in the assay on OVCAR-3, 7.57 µM (inactive); in the assay on EKVX, 14.5 µM (inactive); in the assay with ACHN, 13.2 µM (inactive). In addition, the GI50 is 12.9 µM (inactive) in the assay on Hs-578T; 3.12 µM (inactive) in the assay with HL-60; 2.47 µM (inactive) in the assay on HOP-92; 2.62 µM (inactive) with K562; 17.7 µM (inactive) in the assay with SR; 30.6 µM (inactive) with OVCAR-5. For the same compound, the GI50 in the assay with Malme-3M was 16.8 µM (inactive).

Regarding `O=C1NC(c2ccc3ccccc3c2)Nc2ccccc21` (stereo not given), the GI50 is > 100 µM (inactive) with SF-268; 24.5 µM (inactive) with NCI-H23; > 100 µM (inactive) in the assay with MDA-MB-231; 64.9 µM (inactive) with UO-31; 26.3 µM (inactive) in the assay with COLO 205; 51.9 µM (inactive) with HCC 2998. Further, the GI50 in the assay on M14 was 35.9 µM (inactive); in the assay on SF-295 it was 35.3 µM (inactive); in the assay with NCI-H460 it was 25.3 µM (inactive); in the assay on SNB-75, 75.7 µM (inactive); with EKVX, 45.6 µM (inactive); with ACHN, 48.1 µM (inactive). Also, the GI50 in the assay with Hs-578T was 57.4 µM (inactive); in the assay with HL-60, 15.2 µM (inactive); in the assay with HOP-92 it was 36.7 µM (inactive); with K562 it was 2.54 µM (inactive); in the assay with SR it was 5.83 µM (inactive).

With `Cn1ccc(C(=O)NCCCCCNC(=O)c2ccn(C)c(=O)c2O)c(O)c1=O`, the GI50 in the assay on SF-268, in the assay on NCI-H23, in the assay with MDA-MB-231, with UO-31, in the assay with COLO 205 and in the assay with HCC 2998 was > 100 µM (inactive) in each case. The GI50 in the assay with NCI-H460, with ACHN, in the assay with Hs-578T, in the assay with HL-60, in the assay on HOP-92 and in the assay on SR was > 100 µM (inactive) throughout. Moreover, the GI50 in the assay with Malme-3M was > 100 µM (inactive).

Take `CC/C=C/c1cc2c(cc1O)CCC1C2CC[C@@]2(C)C1CC[C@@H]2O` (stereo not given in full): the GI50 is 10.2 µM (inactive) with SF-268; 3.33 µM (inactive) in the assay on NCI-H23; 3.53 µM (inactive) with MDA-MB-231; 6.03 µM (inactive) in the assay on UO-31; 14 µM (inactive) in the assay on COLO 205; 14.7 µM (inactive) in the assay on HCC 2998. In addition, the GI50 with M14 was 1.17 µM (inactive); with SF-295, 0.34 µM (active); with NCI-H460 it was 0.82 µM (active); in the assay on SNB-75 it was 1.44 µM (inactive); in the assay on OVCAR-3, 0.265 µM (active); in the assay with EKVX, 3.53 µM (inactive). Further, the GI50 in the assay on ACHN is 2.14 µM (inactive); in the assay with Hs-578T, 1.65 µM (inactive); with HOP-92 it was 12 µM (inactive); with K562, 1.28 µM (inactive); in the assay with SR it was 0.34 µM (active); with OVCAR-5, 12.5 µM (inactive). For the same compound, the GI50 in the assay with Malme-3M is 0.524 µM (active).

Turning to `COc1ccc(N)c(C(O)CCNC(C)=O)c1` (stereo not given), the GI50 in the assay on SF-268, in the assay with NCI-H23, with MDA-MB-231, in the assay with UO-31, in the assay on COLO 205 and in the assay with M14 was > 100 µM (inactive) throughout. The GI50 in the assay on SF-295, in the assay with NCI-H460, with SNB-75, with OVCAR-3, in the assay on EKVX and with ACHN was > 100 µM (inactive) throughout. Besides, the GI50 in the assay on Hs-578T, in the assay on HL-60, in the assay with HOP-92, in the assay with SR and with OVCAR-5 was > 100 µM (inactive) throughout.

Regarding `CC(C)(C)C(=O)Nc1cccc(-c2ccc[nH]2)n1`, the GI50 was > 100 µM (inactive) in the assay on SF-268; > 100 µM (inactive) with NCI-H23; > 65 µM (inactive) in the assay on MDA-MB-231; > 96.8 µM (inactive) with UO-31; > 100 µM (inactive) in the assay with COLO 205; > 100 µM (inactive) with HCC 2998. Moreover, the GI50 is > 100 µM (inactive) in the assay on M14; 99.8 µM (inactive) with SF-295; > 96.8 µM (inactive) in the assay with NCI-H460; > 60.8 µM (inactive) with SNB-75; > 83.8 µM (inactive) in the assay on OVCAR-3; > 85.7 µM (inactive) in the assay on EKVX. The GI50 in the assay with ACHN is > 100 µM (inactive); with Hs-578T, 22.7 µM (inactive); with HOP-92, > 100 µM (inactive); in the assay on SR it was 67.1 µM (inactive); in the assay with OVCAR-5, > 100 µM (inactive); with Malme-3M, > 100 µM (inactive).

Consider `CC(=O)N(C)c1ccc(/N=C/N(C)C)cc1`, for which the GI50 in the assay with SF-268, with NCI-H23, in the assay on MDA-MB-231, in the assay with UO-31, with COLO 205 and in the assay on M14 was > 100 µM (inactive) in each case. In addition, the GI50 in the assay with SF-295 was > 100 µM (inactive); in the assay with SNB-75, > 100 µM (inactive); in the assay with OVCAR-3 it was 44 µM (inactive); in the assay with EKVX, > 100 µM (inactive); in the assay with ACHN, > 100 µM (inactive); in the assay with Hs-578T it was > 10 µM (inactive). For the same compound, the GI50 with HL-60, in the assay on HOP-92, in the assay on K562, in the assay on SR, with OVCAR-5 and in the assay on Malme-3M was > 100 µM (inactive) in each case.

For the compound `COc1cc(S(=O)(=O)Nc2nc(-c3ccc(N4C(=O)CSC4c4cccs4)cc3)cs2)ccc1Cl` (stereo not given), the GI50 in the assay on SF-268 was 37.6 µM (inactive); in the assay with NCI-H23, 33.2 µM (inactive); with MDA-MB-231, > 100 µM (inactive); in the assay with UO-31, 22.6 µM (inactive); in the assay with COLO 205, > 100 µM (inactive); in the assay with M14 it was > 100 µM (inactive). Moreover, the GI50 in the assay on SF-295 is > 100 µM (inactive); in the assay with NCI-H460 it was > 100 µM (inactive); with SNB-75 it was > 100 µM (inactive); in the assay with OVCAR-3, 33.7 µM (inactive); with ACHN it was > 100 µM (inactive); in the assay with Hs-578T, 97.1 µM (inactive). For the same compound, the GI50 in the assay with HL-60 is 23.2 µM (inactive); in the assay on HOP-92, 36.6 µM (inactive); in the assay with K562, 31 µM (inactive); in the assay on SR it was 28.9 µM (inactive); in the assay on OVCAR-5, > 100 µM (inactive); in the assay on Malme-3M it was > 100 µM (inactive).

In the case of `CCOP(=O)(OCC)C1CC(n2cc(C)c(=O)[nH]c2=O)OC1CO` (stereo not given), the GI50 in the assay with SF-268 is > 100 µM (inactive); in the assay with NCI-H23, 99.1 µM (inactive); in the assay on MDA-MB-231, > 100 µM (inactive); in the assay with UO-31 it was > 100 µM (inactive); in the assay on HCC 2998, > 100 µM (inactive); in the assay on M14 it was > 100 µM (inactive). The GI50 with SF-295, with NCI-H460, in the assay on SNB-75, with OVCAR-3, in the assay on ACHN and in the assay on Hs-578T was > 100 µM (inactive) in each case. Also, the GI50 is > 100 µM (inactive) in the assay with HL-60; > 100 µM (inactive) in the assay with HOP-92; > 100 µM (inactive) with K562; > 100 µM (inactive) in the assay with SR; 83.4 µM (inactive) in the assay with OVCAR-5; > 100 µM (inactive) in the assay on Malme-3M.
